Literature values in patent US20170298446A1, “BIOMARKERS OF BRUTON TYROSINE KINASE INHIBITOR RESISTANCE” (OHIO STATE INNOVATION FOUNDATION, priority 2014, published 2017).

Molecular target: BTK (Homo sapiens, UniProt Q06187)
Sequence (Q06187 whole entry): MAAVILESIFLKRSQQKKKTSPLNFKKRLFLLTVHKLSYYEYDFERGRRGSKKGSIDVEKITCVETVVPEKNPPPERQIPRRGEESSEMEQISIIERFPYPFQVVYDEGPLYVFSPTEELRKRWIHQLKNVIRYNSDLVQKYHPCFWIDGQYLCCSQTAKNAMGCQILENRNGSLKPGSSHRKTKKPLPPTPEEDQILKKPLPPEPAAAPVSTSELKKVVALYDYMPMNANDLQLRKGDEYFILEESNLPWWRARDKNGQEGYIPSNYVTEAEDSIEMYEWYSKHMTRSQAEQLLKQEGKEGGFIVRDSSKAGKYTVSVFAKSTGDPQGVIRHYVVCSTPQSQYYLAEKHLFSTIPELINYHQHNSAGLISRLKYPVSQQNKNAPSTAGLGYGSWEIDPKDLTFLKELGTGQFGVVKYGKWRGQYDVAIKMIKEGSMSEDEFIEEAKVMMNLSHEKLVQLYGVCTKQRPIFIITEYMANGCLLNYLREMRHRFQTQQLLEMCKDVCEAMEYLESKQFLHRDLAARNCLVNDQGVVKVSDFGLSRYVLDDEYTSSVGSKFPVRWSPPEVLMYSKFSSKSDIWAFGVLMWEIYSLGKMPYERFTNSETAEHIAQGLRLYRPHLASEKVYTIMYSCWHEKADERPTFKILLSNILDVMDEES

selectivity for BTK: > 10 fold
SMILES: CC(C)(C)c1ccc(C(=O)Nc2cccc(-c3cn4ccnc4c(Nc4ccccc4)n3)c2)cc1 [CGI-560, 4-(tert-butyl)-N-(3-(8-(phenylamino)imidazo[1,2-a]pyrazin-6-yl)phenyl)benzamide]
